Like-named read-outs stand apart in the source and are kept apart here.
Target: T1, human TLR7 (Homo sapiens, UniProt Q9NYK1)
T1 construct: host or cells: HEK293
T1 sequence (Q9NYK1 27-1049): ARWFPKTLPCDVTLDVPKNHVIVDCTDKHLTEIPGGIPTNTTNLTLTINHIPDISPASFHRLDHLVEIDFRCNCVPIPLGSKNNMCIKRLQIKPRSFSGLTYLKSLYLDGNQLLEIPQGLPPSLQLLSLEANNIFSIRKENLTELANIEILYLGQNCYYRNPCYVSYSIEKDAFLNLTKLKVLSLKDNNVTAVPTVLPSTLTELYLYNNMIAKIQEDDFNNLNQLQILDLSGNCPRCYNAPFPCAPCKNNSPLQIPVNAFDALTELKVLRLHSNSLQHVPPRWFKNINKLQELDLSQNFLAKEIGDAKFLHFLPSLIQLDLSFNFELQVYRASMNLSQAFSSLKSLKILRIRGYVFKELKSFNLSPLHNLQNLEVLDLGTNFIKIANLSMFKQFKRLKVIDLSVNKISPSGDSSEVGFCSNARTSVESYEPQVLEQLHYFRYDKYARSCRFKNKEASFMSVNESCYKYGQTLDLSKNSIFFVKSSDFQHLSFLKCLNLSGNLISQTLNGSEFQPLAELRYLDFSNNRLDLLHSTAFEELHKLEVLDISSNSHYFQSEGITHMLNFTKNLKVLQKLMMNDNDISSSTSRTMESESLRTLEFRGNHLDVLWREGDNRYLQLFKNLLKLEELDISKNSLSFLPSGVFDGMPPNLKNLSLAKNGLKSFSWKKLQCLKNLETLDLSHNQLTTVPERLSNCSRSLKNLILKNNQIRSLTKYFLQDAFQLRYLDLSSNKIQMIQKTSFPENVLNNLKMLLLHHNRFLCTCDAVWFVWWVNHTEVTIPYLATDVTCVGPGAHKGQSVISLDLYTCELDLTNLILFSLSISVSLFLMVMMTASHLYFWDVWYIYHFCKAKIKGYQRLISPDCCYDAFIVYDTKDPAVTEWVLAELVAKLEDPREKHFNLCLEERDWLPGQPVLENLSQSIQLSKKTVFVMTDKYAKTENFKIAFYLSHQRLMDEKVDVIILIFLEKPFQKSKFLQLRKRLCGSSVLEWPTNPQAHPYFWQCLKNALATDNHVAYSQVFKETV
Test: hTLR7 agonist reporter assay in HEK293 cells (NFκB-SEAP)
Type: cell-based
Conditions: for EC50: read-out: hTLR7 ED50; for hTLR7/8 ratio: hTLR7 ED50 over hTLR8 ED50
Procedure: Assay for hTLR7 and hTLR8 Agonist Activity in HEK-293 Cells
Determination of TLR agonist activity was performed using the HEK293 […]. This assay measures TLR7 and TLR8 selectivity and potency of the compounds tested. HEK293 cells expressing human TLR7 or TLR8 and NFκB responsive Secreted Embryonic Alkaline Phosphatase (SEAP) reporter gene were obtained from InvivoGen (San Diego, Calif.). These cells were maintained in culture media of Dulbecco's Modified Eagle Medium (DMEM) (Invitrogen, Grand Island, N.Y.), 10% Fetal Bovine Serum (FBS) (Sigma, St. Louis, Mo.) and selection antibiotics (Invitrogen, and Invivogen). HEK293 stably transfected with human TLR7 (hTLR7) or human TLR8 (hTLR8) were stimulated for 24 h with aqueous formulations of test compounds and culture supernatants were analyzed for NFκB activation using the colorimetric SEAP detection kit QuantBlue (InvivoGen).

For `CCCCCCCC/C=C\CCCCCCCC(=O)OC[C@H](COP(=O)(O)OCCOc1ccc2c(c1)nc(N)c1nc(CCCC)n(CCO)c12)OC(=O)CCCCCCC/C=C\CCCCCCCC` [Example 1], the “selectivity hTLR8/hTLR7, in words” value (Table 1) was “notable selectivity for hTLR8/hTLR7”, the EC50 (Table 1, FIG. 1, 24 h stimulation, aqueous formulations) was 1.06 µM and the hTLR7/8 ratio (Table 1) was 11.0. The EC50 (Table 2, FIG. 3, another occasion, * = only very low levels of NFKB activation were detected) was 7 µM, the hTLR7/8 ratio (Table 2) was 8.9 and the “hTLR7 agonist activity, in words” value (Table 3, FIG. 5) was “agonist of both TLR7 and TLR8”. For the same molecule, the EC50 (Table 3, FIG. 5, another occasion, * = only very low levels of NFKB activation were detected) was 4.1 µM, the hTLR7/8 ratio (Table 3) was 6.9 and the EC50 (Table 4, FIG. 7, another occasion) was 7 µM. The hTLR7/8 ratio (Table 4) was 9.9, the “hTLR7 agonist activity, in words” value (text on Table 1, FIG. 1) was “significantly more potent as an agonist of hTLR7 and hTLR8 than Comparative Example 2” and the “hTLR7 agonist activity, in words” value (text on Table 2, FIG. 3) was “more active than Comparative Example 2 as an agonist of hTLR7 and hTLR8”.

Source: US11274115B2, “Imidazoquinoline derivatives and their use in therapy” (GLAXOSMITHKLINE BIOLOGICALS SA, priority 2016, dated 2022)
